Format in all cases: cell-based
For one assay, the system named is E. coli ATCC25922. Nature of the assay: Bacterial growth minimal inhibitory concentration, E. coli ATCC25922. To be noted: quinolone-sensitive strain, cation-adjusted Mueller-Hinton Broth, microdilution; for MIC: Escherichia coli, ATCC25922. The protocol:
(§1) Minimal Inhibitory Concentrations (MICs; mg/L) were determined in cation-adjusted Mueller-Hinton Broth by a microdilution method following the description given in “Methods for Dilution Antimicrobial Susceptibility Tests for Bacteria that Grow Aerobically”, Approved standard, 7th ed., Clinical and Laboratory Standards Institute (CLSI) Document M7-A7, Wayne, Pa., USA (2006).
(§2) All Example compounds were tested against several Gram-positive and Gram-negative bacteria. […] K. pneumoniae A-651 is a multiply-resistant (in particular quinolone-resistant) strain, while E. coli ATCC25922 and P. aeruginosa ATCC27853 are quinolone-sensitive strains.
(Broth dilution looks for growth in wells or tubes with falling amounts of substance.)

Another assay has as its system P. aeruginosa ATCC27853. Kind of assay: Bacterial growth minimal inhibitory concentration, P. aeruginosa ATCC27853. The note with it: quinolone-sensitive strain, cation-adjusted Mueller-Hinton Broth, microdilution; for MIC: Pseudomonas aeruginosa, ATCC27853. The protocol: as §1, §2
The subject of the next assay is K. pneumoniae A-651. Kind of assay: Bacterial growth minimal inhibitory concentration, K. pneumoniae A-651. The note with it: cation-adjusted Mueller-Hinton Broth, microdilution; for MIC: Klebsiella pneumoniae, A651, multiply-resistant (in particular quinolone-resistant) strain; for MIC for K. Pneumoniae A-651: multiply-resistant (in particular quinolone-resistant) strain. The method, then:
as §1, §2

For another assay, the system named is wild-type E. coli A-1261. Kind of assay: Bacterial growth minimal inhibitory concentration of prodrugs, wild-type E. coli A-1261, with or without alkaline phosphatase or esterase. The protocol: as §1
The compounds of Examples 6 and 21 were tested against wild-type E. coli A-1261 in the absence of alkaline phosphatase or esterase, in the presence of an alkaline phosphatase and in the presence of an esterase. The corresponding antibacterial test results are given in Table 2 hereafter (MICs in mg/L).

Values after ≈ are worked out from the molar mass of the structure shown.

By MIC is commonly meant the smallest concentration in the dilution series that meets the test's criterion for growth inhibition. Low values mean greater potency, high ones weaker potency. On to `CN1CCC(F)(C#CC#Cc2ccc3nc(CC[C@](C)(C(=O)NO)S(C)(=O)=O)sc3c2)C1` (mixture of isomers) [Example 14, (2R)-4-(6-(((3RS)-3-fluoro-1-methylpyrrolidin-3-yl)buta-1,3-diyn-1-yl)benzo[d]thiazol-2-yl)-N-hydroxy-2-methyl-2-(methylsulfonyl)butanamide], for which the MIC worked out at 0.063 µg/mL against E. coli ATCC25922, 1 µg/mL with P. aeruginosa ATCC27853 and 0.25 µg/mL in the assay with K. pneumoniae A-651.

As to `C[C@@](CCc1nc2ccc(C#CC#CC3CN(C4COC4)C3)cc2s1)(C(=O)NO)S(C)(=O)=O` [Example 1, (2R)—N-hydroxy-2-methyl-2-(methylsulfonyl)-4-(6-((1-(oxetan-3-yl)azetidin-3-yl)buta-1,3-diyn-1-yl)benzo[d]thiazol-2-yl)butanamide], the values for the MIC against E. coli ATCC25922, in the assay on P. aeruginosa ATCC27853 and in the assay on K. pneumoniae A-651 were 0.25 µg/mL (≈ 0.513 µM), 1 µg/mL (≈ 2.05 µM) and 0.25 µg/mL (≈ 0.513 µM), respectively.

On to `C[C@@](CCc1nc2ccc(C#CC#CCOC(=O)N3CCC(O)CC3)cc2s1)(C(=O)NO)S(C)(=O)=O` [Example 2, (2R)-5-(2-(4-(hydroxyamino)-3-methyl-3-(methylsulfonyl)-4-oxobutyl)benzo[d]thiazol-6-yl)penta-2,4-diyn-1-yl 4-hydroxypiperidine-1-carboxylate], for which the “MIC for E. coli ATCC25922” value against E. coli ATCC25922 was determined as 0.25 µg/mL. In addition, the “MIC for P. aeruginosa ATCC27853” value with P. aeruginosa ATCC27853 was found to be 1 µg/mL. The “MIC for K. Pneumoniae A-651” value against K. pneumoniae A-651 came out at 0.5 µg/mL.

Turning to `C[C@@](CCc1nc2ccc(C#CC#CCOC(=O)N3CC(O)C3)cc2s1)(C(=O)NO)S(C)(=O)=O` [Example 3, (2R)-5-(2-(4-(hydroxyamino)-3-methyl-3-(methylsulfonyl)-4-oxobutyl)benzo[d]thiazol-6-yl)penta-2,4-diyn-1-yl 3-hydroxyazetidine-1-carboxylate], the “MIC for E. coli ATCC25922” value in the assay with E. coli ATCC25922 worked out at 0.5 µg/mL. For the same compound, in the assay with P. aeruginosa ATCC27853, the “MIC for P. aeruginosa ATCC27853” value came out at 4 µg/mL. For the same compound, the “MIC for K. Pneumoniae A-651” value against K. pneumoniae A-651 was determined as 1 µg/mL.

On to `CN1CC(C#CC#Cc2ccc3nc(CC[C@](C)(C(=O)NO)S(C)(=O)=O)sc3c2)C1` [Example 4, (2R)—N-hydroxy-2-methyl-4-(6-((1-methylazetidin-3-yl)buta-1,3-diyn-1-yl)benzo[d]thiazol-2-yl)-2-(methylsulfonyl)butanamide], for which the figures for the MIC in the assay on E. coli ATCC25922, against P. aeruginosa ATCC27853 and against K. pneumoniae A-651 were 0.25 µg/mL (≈ 0.561 µM), 1 µg/mL (≈ 2.24 µM) and 0.5 µg/mL (≈ 1.12 µM), respectively.

`C[C@@](CCc1nc2ccc(C#CC#CC3CN(CCO)C3)cc2s1)(C(=O)NO)S(C)(=O)=O` [Example 5, (2R)—N-hydroxy-4-(6-((1-(2-hydroxyethyl)azetidin-3-yl)buta-1,3-diyn-1-yl)benzo[d]thiazol-2-yl)-2-methyl-2-(methylsulfonyl)butanamide]: the MIC in the assay on E. coli ATCC25922 was determined as 1 µg/mL (≈ 2.1 µM); against P. aeruginosa ATCC27853 it was 1 µg/mL (≈ 2.1 µM); against K. pneumoniae A-651 it was 0.5 µg/mL (≈ 1.05 µM).

On to `C[C@@](CCc1nc2ccc(C#CC#CC3CN(CCOP(=O)(O)O)C3)cc2s1)(C(=O)NO)S(C)(=O)=O` [Example 6, (R)-2-(3-((2-(4-(hydroxyamino)-3-methyl-3-(methylsulfonyl)-4-oxobutyl)benzo[d]thiazol-6-yl)buta-1,3-diyn-1-yl)azetidin-1-yl)ethyl dihydrogen phosphate], for which, in the assay on wild-type E. coli A-1261 (alkaline phosphatase 2 i.U./mL), the “MIC for E. coli A-1261 In the presence of an alkaline phosphatase (2 i.U./mL)” value came to 0.5 µg/mL. In addition, in the assay with wild-type E. coli A-1261 (esterase 10 i.U./mL), the “MIC for E. coli A-1261 In the presence of an esterase (10 i.U./mL)” value is over 16 µg/mL. Besides, the “MIC for E. coli A-1261 In the absence of alkaline phosphatase or esterase” value in the assay with wild-type E. coli A-1261 (no alkaline phosphatase or esterase) was over 16 µg/mL.

As to `C[C@@](CCc1nc2ccc(C#CC#C[C@@H]3CC[C@H]3CO)cc2s1)(C(=O)NO)S(C)(=O)=O` [Example 7, (2R)—N-hydroxy-4-(6-(((1R,2R)-2-(hydroxymethyl)cyclobutyl)buta-1,3-diyn-1-yl)benzo[d]thiazol-2-yl)-2-methyl-2-(methylsulfonyl)butanamide], the MIC is 0.125 µg/mL (≈ 0.271 µM) in the assay with E. coli ATCC25922, 1 µg/mL (≈ 2.17 µM) against P. aeruginosa ATCC27853 and 0.25 µg/mL (≈ 0.543 µM) in the assay with K. pneumoniae A-651.

For the compound `CN1CC[C@H]1C#CC#Cc1ccc2nc(CC[C@](C)(C(=O)NO)S(C)(=O)=O)sc2c1` [Example 8, (2R)—N-hydroxy-2-methyl-4-(6-(((2S)-1-methylazetidin-2-yl)buta-1,3-diyn-1-yl)benzo[d]thiazol-2-yl)-2-(methylsulfonyl)butanamide], the MIC in the assay with E. coli ATCC25922 came to 0.25 µg/mL (≈ 0.561 µM); in the assay on P. aeruginosa ATCC27853, 2 µg/mL (≈ 4.49 µM); against K. pneumoniae A-651 it was 1 µg/mL (≈ 2.24 µM).

With `C[C@@](CCc1nc2ccc(C#CC#CC3CN(CC4COC4)C3)cc2s1)(C(=O)NO)S(C)(=O)=O` [Example 9, (2R)—N-hydroxy-2-methyl-2-(methylsulfonyl)-4-(6-((1-(oxetan-3-ylmethyl)azetidin-3-yl)buta-1,3-diyn-1-yl)benzo[d]thiazol-2-yl)butanamide], the MIC with E. coli ATCC25922 was found to be 0.125 µg/mL (≈ 0.249 µM); in the assay on P. aeruginosa ATCC27853, 1 µg/mL (≈ 1.99 µM); against K. pneumoniae A-651 it was 0.25 µg/mL (≈ 0.498 µM).

Regarding `C[C@@](CCc1nc2ccc(C#CC#CC3CN(CCCO)C3)cc2s1)(C(=O)NO)S(C)(=O)=O` [Example 10, (2R)—N-hydroxy-4-(6-((1-(3-hydroxypropyl)azetidin-3-yl)buta-1,3-diyn-1-yl)benzo[d]thiazol-2-yl)-2-methyl-2-(methylsulfonyl)butanamide], the results for the MIC against E. coli ATCC25922, against P. aeruginosa ATCC27853 and with K. pneumoniae A-651 were 0.25 µg/mL (≈ 0.511 µM), 1 µg/mL (≈ 2.04 µM) and 0.5 µg/mL (≈ 1.02 µM), respectively.

Regarding `C[C@@](CCc1nc2ccc(C#CC#CC3CN(C4CC4)C3)cc2s1)(C(=O)NO)S(C)(=O)=O` [Example 11, (2R)-4-(6-((1-cyclopropylazetidin-3-yl)buta-1,3-diyn-1-yl)benzo[d]thiazol-2-yl)-N-hydroxy-2-methyl-2-(methylsulfonyl)butanamide], the MIC with E. coli ATCC25922 was 0.063 µg/mL (≈ 0.134 µM); in the assay on P. aeruginosa ATCC27853 it was 2 µg/mL (≈ 4.24 µM); in the assay on K. pneumoniae A-651, 0.125 µg/mL (≈ 0.265 µM).

On to `C[C@@](CCc1nc2ccc(C#CC#CC3CN(C4CC(O)C4)C3)cc2s1)(C(=O)NO)S(C)(=O)=O` (stereo partly drawn) [Example 12, (2R)—N-hydroxy-4-(6-((1-(3-hydroxycyclobutyl)azetidin-3-yl)buta-1,3-diyn-1-yl)benzo[d]thiazol-2-yl)-2-methyl-2-(methylsulfonyl)butanamide], for which the MIC against E. coli ATCC25922 was found to be 0.125 µg/mL (≈ 0.249 µM); in the assay on P. aeruginosa ATCC27853 it was 1 µg/mL (≈ 1.99 µM); in the assay with K. pneumoniae A-651, 0.25 µg/mL (≈ 0.498 µM).

As for `C[C@@](CCc1nc2ccc(C#CC#CC3CN(CCF)C3)cc2s1)(C(=O)NO)S(C)(=O)=O` [Example 13, (2R)-4-(6-((1-(2-fluoroethyl)azetidin-3-yl)buta-1,3-diyn-1-yl)benzo[d]thiazol-2-yl)-N-hydroxy-2-methyl-2-(methylsulfonyl)butanamide], the MIC with E. coli ATCC25922 turned out to be 0.125 µg/mL (≈ 0.262 µM); against P. aeruginosa ATCC27853, 1 µg/mL (≈ 2.09 µM); against K. pneumoniae A-651, 0.25 µg/mL (≈ 0.523 µM).

Turning to `CN1CCC(F)(C#CC#Cc2ccc3nc(CC[C@](C)(C(=O)NO)S(C)(=O)=O)sc3c2)CC1` [Example 15, (2R)-4-(6-((4-fluoro-1-methylpiperidin-4-yl)buta-1,3-diyn-1-yl)benzo[d]thiazol-2-yl)-N-hydroxy-2-methyl-2-(methylsulfonyl)butanamide], the MIC in the assay on E. coli ATCC25922 was found to be 0.25 µg/mL (≈ 0.509 µM); with P. aeruginosa ATCC27853 it was 1 µg/mL (≈ 2.03 µM); against K. pneumoniae A-651, 0.5 µg/mL (≈ 1.02 µM).

On to `C[C@@H]1[C@@H](C#CC#Cc2ccc3nc(CC[C@](C)(C(=O)NO)S(C)(=O)=O)sc3c2)CN1C` [Example 16, (2R)-4-(6-(((2R,3S)-1,2-dimethylazetidin-3-yl)buta-1,3-diyn-1-yl)benzo[d]thiazol-2-yl)-N-hydroxy-2-methyl-2-(methylsulfonyl)butanamide], for which the MIC came out at 0.125 µg/mL (≈ 0.272 µM) against E. coli ATCC25922, 0.5 µg/mL (≈ 1.09 µM) against P. aeruginosa ATCC27853 and 0.5 µg/mL (≈ 1.09 µM) in the assay on K. pneumoniae A-651.

Consider `CN1C[C@@H](C#CC#Cc2ccc3nc(CC[C@](C)(C(=O)NO)S(C)(=O)=O)sc3c2)[C@@H]1CO` [Example 17, (2R)—N-hydroxy-4-(6-(((2R,3R)-2-(hydroxymethyl)-1-methylazetidin-3-yl)buta-1,3-diyn-1-yl)benzo[d]thiazol-2-yl)-2-methyl-2-(methylsulfonyl)butanamide], for which the figures for the MIC in the assay on E. coli ATCC25922, in the assay with P. aeruginosa ATCC27853 and against K. pneumoniae A-651 were 0.5 µg/mL (≈ 1.05 µM), 1 µg/mL (≈ 2.1 µM) and 1 µg/mL (≈ 2.1 µM), respectively.

As for `CNC1(C#CC#Cc2ccc3nc(CC[C@](C)(C(=O)NO)S(C)(=O)=O)sc3c2)CC1` [Example 18, (2R)—N-hydroxy-2-methyl-4-(6-((1-(methylamino)cyclopropyl)buta-1,3-diyn-1-yl)benzo[d]thiazol-2-yl)-2-(methylsulfonyl)butanamide], the MIC in the assay with E. coli ATCC25922 came out at 0.125 µg/mL (≈ 0.281 µM); against P. aeruginosa ATCC27853, 1 µg/mL (≈ 2.24 µM); in the assay with K. pneumoniae A-651, 0.25 µg/mL (≈ 0.561 µM).

For the compound `CN1C[C@@H](C#CC#Cc2ccc3nc(CC[C@](C)(C(=O)NO)S(C)(=O)=O)sc3c2)[C@@H]1CO` [Example 19, (2R)—N-hydroxy-4-(6-(((2R,3R)-2-(hydroxymethyl)-1-methylazetidin-3-yl)buta-1,3-diyn-1-yl)benzo[d]thiazol-2-yl)-2-methyl-2-(methylsulfonyl)butanamide], the “MIC for E. coli ATCC25922” value in the assay with E. coli ATCC25922 was determined as 0.5 µg/mL. For the same compound, the “MIC for P. aeruginosa ATCC27853” value against P. aeruginosa ATCC27853 was 1 µg/mL. In addition, in the assay with K. pneumoniae A-651, the “MIC for K. Pneumoniae A-651” value was 2 µg/mL.

In the case of `CN1C[C@@H](C#CC#Cc2ccc3nc(CC[C@](C)(C(=O)NO)S(C)(=O)=O)sc3c2)C[C@@H]1CO` [Example 20, (2R)—N-hydroxy-4-(6-(((3R,5R)-5-(hydroxymethyl)-1-methylpyrrolidin-3-yl)buta-1,3-diyn-1-yl)benzo[d]thiazol-2-yl)-2-methyl-2-(methylsulfonyl)butanamide], the MIC amounted to 0.5 µg/mL (≈ 1.02 µM) in the assay with E. coli ATCC25922, 1 µg/mL (≈ 2.04 µM) in the assay with P. aeruginosa ATCC27853 and 1 µg/mL (≈ 2.04 µM) against K. pneumoniae A-651.
